Data published in patent US7183112B2, “Uses for anti-malarial therapeutic agents” (APT Pharmaceuticals, LLC, priority 1999, dated 2007).
Values joined by “and” are separate entries in the source; they are usually repeats but may differ in a detail not shown here. Identical values can stand only once. Marks after values point to notes of the source that are not given here.

What was measured:
[1] = test system: IL-4; details: Seggev J Immunol 150:62A; cited from earlier work
[2] = test system: Ascaris-sensitized sheep; assay: Antigen-induced specific lung resistance (baseline, peak EAR, peak LAR), Example 3; format: in vivo; details: for EAR (peak, largest specific lung resistance 0–4 h) / LAR (peak, largest specific lung resistance 5–8 h): mean ± SE, n = 3 sheep
From the text: All procedures were approved by the Mount Sinai Medical Center Animal Research Committee, which is responsible for assuring the humane care and use of experimental animals. […] During the chronic treatment trail, venous blood samples were obtained from the external jugular vein for the determination of plasma compound concentrations. Samples were obtained as baseline (pre-dosing), and, then, before dosing on days 8, 15, 22, 29 and after dosing had stopped on day 43. Measurement of Airway Mechanics: The unsedated sheep were restrained in a cart in the prone position with their heads immobilized. After topical anesthesia of the nasal passages with 2%-lidocaine solution, a balloon catheter was advanced through one nostril into the lower esophagus. The animals were […] with a cuffed endotracheal tube through the other nostril using a flexible fiberoptic bronchoscope as a guide. (The cuff of the endotracheal tube was inflated only for the measurement of airway mechanics and during aerosol challenges to prevent undue discomfort. This procedure has no-effect on airway mechanics). Pleural pressure was estimated with the esophageal balloon catheter (filled with one ml of air) which was positioned 5–10 cm from the gastroesophageal junction. In this position, the end expiratory pleural pressure ranged between -2 and -5 cm H2O. Once the balloon was placed, it was secured so that it remained in position for the duration of the experiment. Lateral pressure in the trachea was measured with a sidehole catheter (inner dimension, 2.5 mm) advanced through and positioned distal to the tip of the endotracheal tube. Transpulmonary pressure, the difference between tracheal and pleural pressure, was measured with a differential pressure transducer catheter system. For the measurement of pulmonary resistance (RL), the proximal end of the endotracheal tube was connected to a pneumotachograph. The signals of flow and transpulmonary pressure were recorded on a n oscilloscope recorder which was linked to a computer for on-line calculation of RL from transpulmonary pressure, respiratory volume (obtained by digital integration) and flow. Analysis of 5–10 breaths were used for the determination of RL. Immediately after the measurements of RL, thoracic gas volume (Vtg) was measured in a constant volume body plethysmograph to obtain specific lung resistance (SRL=RL·Vtg) in cm H2O·sec^−1. Aerosol Delivery Systems: Aerosols of Ascaris suum extract (diluted 20:1 with phosphate buffered saline; 82,000 PNU/ml) were generated using a disposable medical nebulizer (Raindrop^R, Puritan Bennett), which produces an aerosol with a mass median aerodynamic diameter of 3.2 μm (geometric standard deviation, 1.9) as determined by a 7 stage Andersen cascade impactor. The output from the nebulizer was directed into a plastic T-piece, one end of which was connected to the inspiratory port of a Harvard respirator. To better control aerosol delivery, a dosimeter consisting of a solenoid valve and a source of compressed air (20 psi) was activated at the beginning of the inspiratory cycle of the Harvard respirator system for 1 second. The aerosol was delivered at a tidal volume of 500 ml and a rate of 20 breaths per minute for 20 minutes. Each sheep was challenged with an equivalent dose of antigen (400 breaths) in the control and drug trials. Carbachol aerosols were also generated with this same nebulizer system. The same basic protocol was used for all studies in Example 3. This basic protocol consisted of first obtaining baseline dose response curves to aerosol carbachol 1–3 days prior to antigen challenge. Then, on the day of antigen challenge, values of specific lung resistance (SRL) were measured at baseline and, then, 30 min after drug or vehicle (0.9% saline) treatment. The animals were, then, challenged with Ascaris suum antigen and SRL was remeasured immediately after challenge, hourly from 1–6 h after challenge and on the half-hour from 6 ½–8 h after challenge. […]

[3] = No Treatment 14d after stopping aerosol 2 mg/kg/d x 28 d
[4] = No Treatment 28d after stopping aerosol 2 mg/kg/d x 28 d
[5] = aerosol 0.2 mg/kg once a day x 4 d
[6] = aerosol 0.6 mg/kg once a day x 4 d
[7] = aerosol 1 mg/kg twice a day for 4 days
[8] = aerosol 1 mg/kg twice a day x 4 d
[9] = aerosol 2 mg/kg once a day for 4 days
[10] = aerosol 2 mg/kg once a day x 4 d
[11] = aerosol 2 mg/kg once a day x 14 d
[12] = aerosol 2 mg/kg once a day x 28 d
[13] = chronic treatment, aerosol 2 mg/kg once a day for up to 4 weeks
[14] = dose response, aerosol 0.2, 0.6 and 2 mg/kg once a day for 4 days
[15] = p.o. 1 mg/kg twice a day for 4 days

CCN(CCO)CCCC(C)Nc1ccnc2cc(Cl)ccc12 (stereo not shown) [HCQ, hydroxychloroquine]
effect on the actions of IL-4 [1]: blocks
effect on LAR and AHR after stopping treatment ([2]; 2 weeks after stopping 4 weeks aerosol 2 mg/kg once a day): carryover effect
response to allergen after stopping treatment ([2]; 2 weeks after stopping aerosol 1 mg/kg twice a day for 4 days): responded normally
response to allergen after stopping treatment ([2]; 2 weeks after stopping aerosol 2 mg/kg once a day for 4 days): responded normally
animals' responses after stopping treatment ([2]; 4 weeks after stopping 4 weeks aerosol 2 mg/kg once a day): returned to normal
EAR (peak, largest specific lung resistance 0–4 h) [2, 3]: 4.17 ± 1.70 cmH2O.sec^−1
LAR (peak, largest specific lung resistance 5–8 h) [2, 3]: 1.69 ± 0.21 cmH2O.sec^−1
EAR (peak, largest specific lung resistance 0–4 h) [2, 4]: 4.35 ± 0.74 cmH2O.sec^−1
LAR (peak, largest specific lung resistance 5–8 h) [2, 4]: 2.69 ± 0.26^h cmH2O.sec^−1
EAR (peak, largest specific lung resistance 0–4 h) [2, 5]: 3.95 ± 0.47 cmH2O.sec^−1
LAR (peak, largest specific lung resistance 5–8 h) [2, 5]: 2.22 ± 0.17^h cmH2O.sec^−1
overall protective effect ([2]; aerosol 0.6 mg/kg once a day for 4 days): significant protective effects
EAR (peak, largest specific lung resistance 0–4 h) [2, 6]: 3.19 ± 0.51 cmH2O.sec^−1
LAR (peak, largest specific lung resistance 5–8 h) [2, 6]: 1.30 ± 0.18^f cmH2O.sec^−1
effect on early airway response (EAR) [2, 7]: no effect
effect on late airway response (LAR) [2, 7]: blocked
EAR (peak, largest specific lung resistance 0–4 h) [2, 8]: 5.57 ± 1.82 cmH2O.sec^−1
LAR (peak, largest specific lung resistance 5–8 h) [2, 8]: 1.35 ± 0.15^d,e cmH2O.sec^−1
effect on EAR [2, 9]: no effect
effect on LAR [2, 9]: blocked
EAR (peak, largest specific lung resistance 0–4 h) [2, 10]: 3.5 ± 0.73 cmH2O.sec^−1 and 3.53 ± 0.73 cmH2O.sec^−1
LAR (peak, largest specific lung resistance 5–8 h) [2, 10]: 1.34 ± 0.32^d,e cmH2O.sec^−1 and 1.34 ± 0.03^d cmH2O.sec^−1
EAR (peak, largest specific lung resistance 0–4 h) [2, 11]: 4.21 ± 1.68 cmH2O.sec^−1
LAR (peak, largest specific lung resistance 5–8 h) [2, 11]: 0.78 ± 0.39^f cmH2O.sec^−1
EAR (peak, largest specific lung resistance 0–4 h) [2, 12]: 4.21 ± 1.16 cmH2O.sec^−1
LAR (peak, largest specific lung resistance 5–8 h) [2, 12]: 1.22 ± 0.08^d cmH2O.sec^−1
effect on EAR [2, 13]: no effect
effect on LAR [2, 13]: block
effect on EAR [2, 14]: no effect
effect on LAR [2, 14]: blocked
effect on antigen-induced EAR [2, 15]: did not protect
effect on antigen-induced LAR [2, 15]: did not protect
EAR (peak, largest specific lung resistance 0–4 h) ([2]; p.o. 1 mg/kg twice a day x 4 d): 4.64 ± 0.55 cmH2O.sec^−1
LAR (peak, largest specific lung resistance 5–8 h) ([2]; p.o. 1 mg/kg twice a day x 4 d): 2.27 ± 0.10 cmH2O.sec^−1
